Some test systems named below: NCI/ADR-RES ovarian; MCF7 breast; SK-MEL-28 melanoma; UO-31 renal; MALME-3M melanoma; SR leukemia; NCI-H522 lung; OVCAR-4 ovarian; OVCAR-3 ovarian; RXF 393 renal; HCT-15 colon.
What all share (test): NCI-60 cell line screen, 48 h

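Briefly, cells in 96-well plates were exposed to five compound concentrations for 48 h, and endpoints were estimated by linear interpolation. TGI: total growth inhibition.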 Where only a bound is given, the exact number is not on record here.

For `CCN(CC)CCO/N=C1\CC[C@H]2[C@@H]3CC=C4C[C@@H](O)CC[C@]4(C)[C@H]3CC[C@]12C`, the TGI with NCI/ADR-RES ovarian was more than 100 µM; in the assay on MCF7 breast it was 31.6 µM; in the assay on SK-MEL-28 melanoma it was 31.1 µM; in the assay with UO-31 renal, 32.1 µM; with MALME-3M melanoma, 29.7 µM; in the assay on SR leukemia, 26.4 µM. The TGI in the assay with NCI-H522 lung was determined as 34 µM; in the assay on OVCAR-4 ovarian it was 71.1 µM; in the assay on OVCAR-3 ovarian it was 43.8 µM; with RXF 393 renal it was 34.1 µM; with HCT-15 colon it was 28.5 µM.
Regarding `CC(C)CCC[C@@H](C)[C@H]1CC[C@H]2[C@@H]3CC=C4C[C@@H](OC(=O)c5cccc6c(=O)c7ccccc7[nH]c56)CC[C@]4(C)[C@H]3CC[C@]12C`, the TGI with NCI/ADR-RES ovarian, in the assay with MCF7 breast, in the assay on SK-MEL-28 melanoma, in the assay with UO-31 renal, in the assay with MALME-3M melanoma and in the assay with SR leukemia was more than 75 µM throughout. In addition, the TGI with NCI-H522 lung, with OVCAR-4 ovarian, with OVCAR-3 ovarian, with RXF 393 renal and in the assay with HCT-15 colon was more than 75 µM throughout.
Take `COc1ccc(C(O)c2ccc3c(c2)OCO3)cc1` (stereo not given): the TGI with NCI/ADR-RES ovarian, with MCF7 breast, with SK-MEL-28 melanoma, in the assay on UO-31 renal, in the assay on MALME-3M melanoma and with SR leukemia was more than 100 µM in each case. Besides, the TGI with NCI-H522 lung, in the assay with OVCAR-4 ovarian, in the assay with OVCAR-3 ovarian, with RXF 393 renal and in the assay on HCT-15 colon was more than 100 µM throughout.
Turning to `CN(C)CCOC(=O)COc1ccc(Cl)cc1`, the TGI with NCI/ADR-RES ovarian, with MCF7 breast, with SK-MEL-28 melanoma, with UO-31 renal, with MALME-3M melanoma and with SR leukemia was more than 100 µM each time. For the same compound, the TGI in the assay with NCI-H522 lung, in the assay on OVCAR-4 ovarian, in the assay on OVCAR-3 ovarian, in the assay with RXF 393 renal and in the assay on HCT-15 colon was more than 100 µM throughout.
Take `CCOC(=O)c1ccc2nc(NC(=O)COC(=O)CSc3nc(C)cc(C)n3)sc2c1`: the TGI was more than 100 µM in the assay on NCI/ADR-RES ovarian; more than 100 µM in the assay on MCF7 breast; more than 100 µM with SK-MEL-28 melanoma; 38.5 µM in the assay on UO-31 renal; more than 100 µM in the assay on MALME-3M melanoma; more than 100 µM with SR leukemia. Further, the TGI in the assay on NCI-H522 lung is more than 100 µM; with OVCAR-4 ovarian it was more than 100 µM; in the assay on OVCAR-3 ovarian, 91.5 µM; with RXF 393 renal, more than 100 µM; in the assay with HCT-15 colon, more than 100 µM.
For the compound `O=C(/C=C/c1ccc(-c2ccccc2[N+](=O)[O-])o1)NCc1ccc(C(=O)NCCc2ccccc2)cc1`, the TGI in the assay with NCI/ADR-RES ovarian, with MCF7 breast, in the assay on SK-MEL-28 melanoma, with UO-31 renal, in the assay on MALME-3M melanoma and with SR leukemia was more than 100 µM throughout. Besides, the TGI in the assay on NCI-H522 lung, in the assay on OVCAR-4 ovarian, in the assay with OVCAR-3 ovarian, in the assay with RXF 393 renal and in the assay with HCT-15 colon was more than 100 µM each time.
Consider `C#CCNC(Cc1cnc[nH]1)C(=O)O` (stereo not given), for which the TGI in the assay with NCI/ADR-RES ovarian, in the assay on MCF7 breast, in the assay on SK-MEL-28 melanoma, with UO-31 renal, in the assay with MALME-3M melanoma and in the assay with SR leukemia was more than 100 µM each time. Moreover, the TGI with NCI-H522 lung, in the assay on OVCAR-4 ovarian, with OVCAR-3 ovarian, with RXF 393 renal and in the assay with HCT-15 colon was more than 100 µM each time.
With `COc1ccc(/C=C/c2cc(O)cc(OC)c2)cc1`, the TGI with NCI/ADR-RES ovarian, with MCF7 breast, in the assay on SK-MEL-28 melanoma, in the assay on UO-31 renal, in the assay on MALME-3M melanoma and in the assay with SR leukemia was more than 100 µM each time. In addition, the TGI in the assay with NCI-H522 lung is more than 100 µM; with OVCAR-4 ovarian, more than 100 µM; in the assay with OVCAR-3 ovarian, more than 100 µM; with RXF 393 renal it was more than 100 µM; with HCT-15 colon, 14.4 µM.
With `CCOC(=O)c1ccc(C(=O)C(C(C)=O)C(=O)OC(C)(C)C)n1C` (stereo not given), the TGI in the assay with NCI/ADR-RES ovarian, in the assay with MCF7 breast, with SK-MEL-28 melanoma, in the assay with UO-31 renal, with MALME-3M melanoma and in the assay on SR leukemia was more than 100 µM each time. The TGI with NCI-H522 lung, in the assay on OVCAR-4 ovarian, with OVCAR-3 ovarian, in the assay on RXF 393 renal and with HCT-15 colon was more than 100 µM each time.
For `OC1CCCC1C(O)(C(F)(F)F)C(F)(F)F` (stereo not given), the TGI in the assay on NCI/ADR-RES ovarian, in the assay on MCF7 breast, in the assay on SK-MEL-28 melanoma, in the assay on UO-31 renal, in the assay on MALME-3M melanoma and in the assay with SR leukemia was more than 100 µM throughout. In addition, the TGI in the assay on NCI-H522 lung, in the assay with OVCAR-4 ovarian, with OVCAR-3 ovarian, with RXF 393 renal and in the assay on HCT-15 colon was more than 100 µM in each case.

(Values after PubChem BioAssay (NCI).)
